# Laboratory results reported in ChEMBL document CHEMBL1743341, “Cytochrome p450 enzymes mechanism based inhibitors: common sub-structures and reactivity” (Curr Drug Metab, 2005).
# What was measured:
# CYP2B6 [1] = target: T1, CYP2B6 (Homo sapiens, UniProt P20813); experiment: (§1) Mechanism based inhibition of human cytochrome P450 2B6 measured by N-(3,5-dichloro-4-pyridyl)-3- (cyclopentoxy)-4- methoxybenzamide (DCMB) hydroxylase activity; format: ADME; conditions: human
# T1 sequence (P20813 whole entry): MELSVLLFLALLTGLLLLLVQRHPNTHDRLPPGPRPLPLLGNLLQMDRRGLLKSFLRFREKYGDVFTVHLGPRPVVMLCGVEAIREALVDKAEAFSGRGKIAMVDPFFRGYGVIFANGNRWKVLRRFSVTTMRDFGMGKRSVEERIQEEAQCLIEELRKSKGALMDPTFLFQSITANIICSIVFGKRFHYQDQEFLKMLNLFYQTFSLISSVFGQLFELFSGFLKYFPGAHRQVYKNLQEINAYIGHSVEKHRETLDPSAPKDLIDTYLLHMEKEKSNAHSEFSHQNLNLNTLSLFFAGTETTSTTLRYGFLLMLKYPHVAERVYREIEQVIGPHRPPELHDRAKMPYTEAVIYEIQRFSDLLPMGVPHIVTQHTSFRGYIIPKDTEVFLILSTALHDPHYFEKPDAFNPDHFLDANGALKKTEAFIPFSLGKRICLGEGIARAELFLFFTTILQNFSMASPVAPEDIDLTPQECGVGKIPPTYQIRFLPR
# Cytochrome P450 2B6 [2] = target: T2, Cytochrome P450 2B6 (Homo sapiens, UniProt P20813); experiment: as §1; format: ADME
# T2 sequence (P20813 whole entry): T1 sequence (P20813 whole entry)
# CYP2D6 [3] = target: T3, CYP2D6 (Homo sapiens, UniProt P10635); experiment: (§2) Mechanism based inhibition of human cytochrome P450 2D6 measured by bufurarol hydroxylation using liver microsomes; format: ADME, Microsome; conditions: probe bufurarol
# Cytochrome P450 2D6 [4] = target: T4, Cytochrome P450 2D6 (Homo sapiens, UniProt P10635); experiment: as §2; format: ADME, Microsome
# CYP3A4 [5] = target: T5, CYP3A4 (Homo sapiens, UniProt P08684); experiment: (§3) Mechanism based inhibition of human cytochrome P450 3A4 measured by DBF fluorescence; format: ADME; conditions: human, probe DBF
# Cytochrome P450 3A4 [6] = target: T6, Cytochrome P450 3A4 (Homo sapiens, UniProt P08684); experiment: as §3; format: ADME
# Cytochrome P450 3A4 [7] = target: T6, Cytochrome P450 3A4; experiment: Mechanism based inhibition of human cytochrome P450 3A4, partition ratio; format: ADME
# CYP2D6 [8] = target: T3, CYP2D6; experiment: (§4) Mechanism based inhibition of human cytochrome P450 2D6 measured by […] 1'-hydroxylation; format: ADME; conditions: human, probe bufurarol
# Cytochrome P450 2D6 [9] = target: T4, Cytochrome P450 2D6; experiment: as §4; format: ADME
# Cytochrome P450 3A4 [10] = target: T6, Cytochrome P450 3A4; experiment: (§5) Mechanism based inhibition of human cytochrome P450 3A4; format: ADME
# CYP3A4 [11] = target: T5, CYP3A4; experiment: (§6) Mechanism based inhibition of human cytochrome P450 3A4 measured by testosterone 6-beta hydroxylation; format: ADME; conditions: human, probe testosterone (6-beta hydroxylation)
# Cytochrome P450 3A4 [12] = target: T6, Cytochrome P450 3A4; experiment: as §6; format: ADME
# Cytochrome P450 2C9 = Cytochrome P450 2C9 (Homo sapiens, UniProt P11712); experiment: Mechanism based inhibition of human cytochrome P450 2C9 measured by tienilic acid 5-hydroxylation; format: ADME
# Cytochrome P450 2C8 [13] = target: T7, Cytochrome P450 2C8 (Homo sapiens, UniProt P10632)
# T7 sequence (P10632 whole entry): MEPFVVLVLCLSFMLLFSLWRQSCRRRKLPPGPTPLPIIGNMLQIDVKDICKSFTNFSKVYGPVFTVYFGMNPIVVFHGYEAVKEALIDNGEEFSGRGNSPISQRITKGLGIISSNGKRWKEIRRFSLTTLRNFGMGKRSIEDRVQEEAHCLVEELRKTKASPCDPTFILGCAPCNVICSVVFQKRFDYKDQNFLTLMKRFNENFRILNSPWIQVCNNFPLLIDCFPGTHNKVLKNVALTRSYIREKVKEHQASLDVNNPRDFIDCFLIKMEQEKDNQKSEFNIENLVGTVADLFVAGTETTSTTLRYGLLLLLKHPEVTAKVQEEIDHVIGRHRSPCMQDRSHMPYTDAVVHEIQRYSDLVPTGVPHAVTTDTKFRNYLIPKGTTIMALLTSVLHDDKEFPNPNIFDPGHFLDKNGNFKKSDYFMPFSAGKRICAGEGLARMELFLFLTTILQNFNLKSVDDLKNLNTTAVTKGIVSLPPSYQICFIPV
# Description: (§10) Mechanism based inhibition of human cytochrome P450 2C8 measured by paclitaxel hydroxylation using human liver microsomes
# Cytochrome P450 2C8 [14] = target: T7, Cytochrome P450 2C8; remark: listed apart in the source
# Description: (§11) Mechanism based inhibition of human cytochrome P450 2C8 measured by paclitaxel hydroxylation using a recombinant system
# CYP2C8 [15] = target: T8, CYP2C8 (Homo sapiens, UniProt P10632); experiment: in vitro; conditions: human liver microsomes, probe paclitaxel
# T8 sequence (P10632 whole entry): T7 sequence (P10632 whole entry)
# Description: as §10
# CYP2C8 [16] = target: T8, CYP2C8; experiment: in vitro; conditions: recombinant CYP2C8, probe paclitaxel
# Description: as §11
# CYP2D6 [17] = target: T3, CYP2D6; experiment: (§7) Mechanism based inhibition of human cytochrome P450 2D6 measured by dextromethorphan O-demethylation; conditions: human, probe dextromethorphan
# Cytochrome P450 2D6 [18] = target: T4, Cytochrome P450 2D6; experiment: as §7
# CYP2B6 [19] = target: T1, CYP2B6; experiment: (§8) Mechanism based inhibition of human cytochrome P450 2B6 using human liver microsomes; conditions: human, human liver microsomes
# Cytochrome P450 2B6 [20] = target: T2, Cytochrome P450 2B6; experiment: as §8
# CYP2B6 [21] = target: T1, CYP2B6; experiment: (§9) Mechanism based inhibition of human cytochrome P450 2B6 using recombinant CYP2B6; conditions: human, recombinant CYP2B6
# Cytochrome P450 2B6 [22] = target: T2, Cytochrome P450 2B6; experiment: as §9
# Cytochrome P450 3A4 [23] = target: T6, Cytochrome P450 3A4; experiment: as §5; format: ADME; remark: listed apart in the source
# Cytochrome P450 3A4 [24] = target: T6, Cytochrome P450 3A4; experiment: Mechanism based inhibition of human cytochrome P450 3A4 measured by midazolam hydroxylation in vivo; format: ADME, organism-based
# T6 sequence (P08684 whole entry): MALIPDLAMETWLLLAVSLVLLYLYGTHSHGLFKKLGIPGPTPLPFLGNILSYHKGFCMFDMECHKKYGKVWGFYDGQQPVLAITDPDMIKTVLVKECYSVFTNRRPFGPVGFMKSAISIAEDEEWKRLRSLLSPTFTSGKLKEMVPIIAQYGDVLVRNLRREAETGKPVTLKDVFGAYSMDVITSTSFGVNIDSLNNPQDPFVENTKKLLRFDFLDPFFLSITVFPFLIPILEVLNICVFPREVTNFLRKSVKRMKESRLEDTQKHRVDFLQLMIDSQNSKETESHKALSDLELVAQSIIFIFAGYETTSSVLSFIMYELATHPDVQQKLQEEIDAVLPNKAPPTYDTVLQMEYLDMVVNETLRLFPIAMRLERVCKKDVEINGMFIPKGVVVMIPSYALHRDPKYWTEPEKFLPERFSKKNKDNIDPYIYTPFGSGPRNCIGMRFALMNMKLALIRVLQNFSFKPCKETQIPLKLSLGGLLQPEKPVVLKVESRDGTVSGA
# T4 sequence (P10635 whole entry): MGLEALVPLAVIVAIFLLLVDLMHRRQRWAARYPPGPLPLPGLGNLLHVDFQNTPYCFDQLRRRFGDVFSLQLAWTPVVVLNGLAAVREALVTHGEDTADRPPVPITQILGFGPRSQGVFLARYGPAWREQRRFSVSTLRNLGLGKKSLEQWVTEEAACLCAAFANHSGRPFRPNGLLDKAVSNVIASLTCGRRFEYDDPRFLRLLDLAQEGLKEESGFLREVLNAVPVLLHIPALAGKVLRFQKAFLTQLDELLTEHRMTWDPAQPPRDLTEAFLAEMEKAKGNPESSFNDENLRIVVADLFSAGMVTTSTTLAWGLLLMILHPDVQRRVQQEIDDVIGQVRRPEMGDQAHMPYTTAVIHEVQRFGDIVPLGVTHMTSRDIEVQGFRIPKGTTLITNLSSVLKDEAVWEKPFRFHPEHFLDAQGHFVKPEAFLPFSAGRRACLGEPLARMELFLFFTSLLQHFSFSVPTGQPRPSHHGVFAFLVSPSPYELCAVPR
# T3 sequence (P10635 whole entry): as above
# T5 sequence (P08684 whole entry): as the sequence (P08684 whole entry) above
# Chain of Cytochrome P450 2C9 (P11712 whole entry): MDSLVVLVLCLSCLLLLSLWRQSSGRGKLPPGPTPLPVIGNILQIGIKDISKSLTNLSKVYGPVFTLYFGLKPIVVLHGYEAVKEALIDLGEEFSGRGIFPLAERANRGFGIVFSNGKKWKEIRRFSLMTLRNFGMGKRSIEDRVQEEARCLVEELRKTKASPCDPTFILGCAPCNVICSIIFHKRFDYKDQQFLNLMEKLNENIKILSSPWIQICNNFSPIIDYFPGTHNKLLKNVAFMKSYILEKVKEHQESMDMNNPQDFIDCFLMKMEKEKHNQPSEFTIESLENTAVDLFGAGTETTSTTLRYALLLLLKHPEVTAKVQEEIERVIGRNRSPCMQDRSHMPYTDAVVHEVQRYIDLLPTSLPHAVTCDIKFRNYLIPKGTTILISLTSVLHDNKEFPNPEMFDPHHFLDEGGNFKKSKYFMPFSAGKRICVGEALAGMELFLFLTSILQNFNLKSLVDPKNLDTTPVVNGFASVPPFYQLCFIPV
smiles,measurement,setting,value
C#CCOc1cc(C(=O)Nc2c(Cl)cncc2Cl)ccc1OC,kinact,CYP2B6 [1],0.0015 s⁻¹
same,Ki,Cytochrome P450 2B6 [2],5.1 µM
CCN(CC1CCN(S(C)(=O)=O)CC1)[C@@H](C)Cc1ccc2c(c1)CCO2,kinact,CYP2D6 [3],0.38 s⁻¹
same,Ki,Cytochrome P450 2D6 [4],1420 nM
CC(O)CCC(=O)c1ccoc1 (stereo not drawn),kinact,CYP3A4 [5],0.0025 s⁻¹
same,Ki,Cytochrome P450 3A4 [6],20 µM
same,Partition ratio,Cytochrome P450 3A4 [7],257
CC(C)(C)NC(=O)[C@@H]1CN(Cc2cnc3occc3c2)CCN1C[C@@H](O)C[C@@H](Cc1ccccc1)C(=O)N[C@H]1c2ccccc2C[C@H]1O,kinact,CYP2D6 [8],0.003 s⁻¹
same,Ki,Cytochrome P450 2D6 [9],32 µM
same,mechanism based inhibition,Cytochrome P450 3A4 [10],Cytochrome P450 mechanistic inhibitor: PMID 10757976
same,kinact,CYP3A4 [11],0.027 s⁻¹
same,Ki,Cytochrome P450 3A4 [12],7.5 µM
same,mechanism based inhibition,Cytochrome P450 3A4 [12],Cytochrome P450 mechanistic inhibitor: PMID 8531125
same,Partition ratio,Cytochrome P450 3A4 [7],1.4
O=C(O)COc1ccc(C(=O)c2cccs2)c(Cl)c1Cl,mechanism based inhibition,Cytochrome P450 2C9,Cytochrome P450 mechanistic inhibitor: PMID 8944768
CCCCc1oc2ccccc2c1C(=O)c1cc(I)c(OCCN(CC)CC)c(I)c1 [AMIODARONE],Ki,Cytochrome P450 2C8 [13],51.2 µM
same,Ki,Cytochrome P450 2C8 [14],1500 nM
same,kinact,CYP2C8 [15],0.000483 s⁻¹
same,kinact,CYP2C8 [16],0.00132 s⁻¹
CN/C(=N/CCSCc1nc[nH]c1C)NC#N [CIMETIDINE],kinact,CYP2D6 [17],0.0005 s⁻¹
same,Ki,Cytochrome P450 2D6 [18],77 µM
COC(=O)[C@H](c1ccccc1Cl)N1CCc2sccc2C1 [CLOPIDOGREL],kinact,CYP2B6 [19],0.00583 s⁻¹
same,Ki,Cytochrome P450 2B6 [20],500 nM
same,kinact,CYP2B6 [21],0.0025 s⁻¹
same,Ki,Cytochrome P450 2B6 [22],1100 nM
C#C[C@]1(O)C=C[C@H]2[C@@H]3CCC4=CC(=O)CC[C@@H]4[C@H]3CC[C@@]21CC [GESTODENE],mechanism based inhibition,Cytochrome P450 3A4 [10],Cytochrome P450 mechanistic inhibitor: PMID 9385444
same,mechanism based inhibition,Cytochrome P450 3A4 [23],Cytochrome P450 mechanistic inhibitor: PMID 2133086
same,mechanism based inhibition,Cytochrome P450 3A4 [24],Cytochrome P450 mechanistic inhibitor: PMID 11012556
